Test results published in patent US11800867B2, “Methods of repelling biting arthropods, reducing pathogen spread and treating arthropod infestation” (priority 2016, dated 2023).

Columns and labels:
[1] = system: biting midges (Culicoides sp.); assay: Treated filter paper knockdown (KD) and mortality trial (Example 4); format: in vivo; conditions: Nootkatone 1% in ethanol on filter paper
Experimental: (§1) A laboratory trial was conducted to assess the efficacy of nootkatone applied to filter paper against aphids (Schizaphis gramium), dust mites (Dermatophagoides sp.), termites (Reticulitermes flavipes), deer ticks (Ixodes scapularis), biting midges (Culicoides sp.), fire ants (Solenopsis invicta), and mosquitoes (Aedes aegypti and Culex), in terms of knockdown (KD) and mortality. One concentration (1% in ethanol) of nootkatone was assessed for most species, but three concentrations (0.25%, 0.5%, and 1% in ethanol) were assessed for mosquitoes. A negative control group, consisting of filter paper treated with ethanol, was also assessed for comparison purposes for each species.
(§2) Test systems were introduced to treated filter paper, allowed to dry, and then introduced into treatment chamber, where treated arthropods were monitored at intervals up to 72 hours. If 100% mortality was obtained prior to 72 hours, the individual study was halted.
(§3) Midges and mosquitoes—5 replicates of 10 insects per treatment were tested. Inverted 10 ounce (295 ml) clear plastic cups with a 0.5 inch (1.27 cm) hole burned into the center of the bottom, and with the sides coated with Fluon® was used at the treatment containers. The bottoms of the containers consisted of Petri dish lids 3.54 inches (9.0 cm) in diameter lined with a treated filter paper circle the same diameter. The cup was placed over the filter paper in the lid and both were secured in place using 2 rubber bands. The insects were introduced through the hole in the cup, and a plastic disc was placed over the opening to prevent escapes.
(§4) Readings were discontinued if treated mortality reaches […], or control mortality exceeds 20%.

[2] = system: Southern house mosquito (Culex); assay: as above; format: in vivo
Experimental: as §1, §2, §3, §4

[3] = Nootkatone 0.25% in ethanol on filter paper, 30 minutes post introduction
[4] = Nootkatone 0.25% in ethanol on filter paper, 1 hour post introduction
[5] = Nootkatone 0.25% in ethanol on filter paper, 4 hours post introduction
[6] = Nootkatone 0.25% in ethanol on filter paper, 8 hours post introduction
[7] = Nootkatone 0.25% in ethanol on filter paper, 24 hours post introduction
[8] = Nootkatone 0.25% in ethanol on filter paper, 48 hours post introduction
[9] = Nootkatone 0.25% in ethanol on filter paper, 72 hours post introduction
[10] = Nootkatone 0.5% in ethanol on filter paper, 30 minutes post introduction
[11] = Nootkatone 0.5% in ethanol on filter paper, 1 hour post introduction
[12] = Nootkatone 0.5% in ethanol on filter paper, 4 hours post introduction
[13] = Nootkatone 0.5% in ethanol on filter paper, 8 hours post introduction
[14] = Nootkatone 0.5% in ethanol on filter paper, 24 hours post introduction
[15] = Nootkatone 0.5% in ethanol on filter paper, 48 hours post introduction
[16] = Nootkatone 0.5% in ethanol on filter paper, 72 hours post introduction
[17] = Nootkatone 1% in ethanol on filter paper, 30 minutes post introduction
[18] = Nootkatone 1% in ethanol on filter paper, 1 hour post introduction
[19] = Nootkatone 1% in ethanol on filter paper, 4 hours post introduction
[20] = Nootkatone 1% in ethanol on filter paper, 8 hours post introduction
[21] = Nootkatone 1% in ethanol on filter paper, 24 hours post introduction
[22] = Nootkatone 1% in ethanol on filter paper, 48 hours post introduction
[23] = Nootkatone 1% in ethanol on filter paper, 72 hours post introduction

## C=C(C)[C@@H]1CCC2=CC(=O)C[C@@H](C)[C@]2(C)C1 [Nootkatone, nootkatone]
[1]
  Time required for greater than 90% killing: 24 h
[1]; 30 minutes post introduction
  Means Affected: 100.0%
  Means Dead: 0.0%
  Means KD: 100.0%
[1]; 1 hour post introduction
  Means Affected: 100.0%
  Means Dead: 1.8%
  Means KD: 98.2%
[1]; 4 hours post introduction
  Means Affected: 100.0%
  Means Dead: 78.7%
  Means KD: 21.3%
[1]; 24 hours post introduction
  Means Affected: 100.0%
  Means Dead: 100%
  Means KD: 0.0%
[1]; 24 hours post introduction, listed as nootkatone
  Means Dead: 100%
[2]; [3]
  Means Affected: 24.0%
  Means Dead: 0.0%
  Means KD: 24.0%
[2]; [4]
  Means Affected: 22.0%
  Means Dead: 0.0%
  Means KD: 22.0%
[2]; [5]
  Means Affected: 32.2%
  Means Dead: 0.0%
  Means KD: 32.2%
[2]; [6]
  Means Affected: 18.0%
  Means Dead: 0.0%
  Means KD: 18.0%
[2]; [7]
  Means Affected: 26.2%
  Means Dead: 12.2%
  Means KD: 14.0%
[2]; [8]
  Means Affected: 75.6%
  Means Dead: 61.3%
  Means KD: 14.2%
[2]; [9]
  Means Affected: 76.0%
  Means Dead: 74.0%
  Means KD: 2.0%
[2]; [10]
  Means Affected: 0.0%
  Means Dead: 0.0%
  Means KD: 0.0%
[2]; [11]
  Means Affected: 2.5%
  Means Dead: 0.0%
  Means KD: 2.5%
[2]; [12]
  Means Affected: 4.0%
  Means Dead: 0.0%
  Means KD: 4.0%
[2]; [13]
  Means Affected: 4.0%
  Means Dead: 0.0%
  Means KD: 4.0%
[2]; [14]
  Means Affected: 29.0%
  Means Dead: 10.5%
  Means KD: 18.5%
[2]; [15]
  Means Affected: 72.0%
  Means Dead: 49.0%
  Means KD: 23.0%
[2]; [16]
  Means Affected: 82.0%
  Means Dead: 82%
  Means KD: 0.0%
[2]; [17]
  Means Affected: 2.2%
  Means Dead: 0.0%
  Means KD: 2.2%
[2]; [18]
  Means Affected: 52.2%
  Means Dead: 0.0%
  Means KD: 52.2%
[2]; [19]
  Means Affected: 83.7%
  Means Dead: 0.0%
  Means KD: 83.7%
[2]; [20]
  Means Affected: 92.0%
  Means Dead: 13.1%
  Means KD: 78.9%
[2]; [21]
  Means Affected: 100.0%
  Means Dead: 97.8%
  Means KD: 2.2%
[2]; [22]
  Means Affected: 100.0%
  Means Dead: 100.0%
  Means KD: 0.0%
[2]; [23]
  Means Affected: 100.0%
  Means Dead: 100%
  Means KD: 0.0%
